Key:
[1] = test system: PAF-induced platelet aggregation, rabbit platelet-rich plasma; test: Inhibitory action on PAF-induced platelet aggregation; format: cell-based, rabbit (New Zealand white); conditions: Oryctolagus cuniculus, rabbit PRP, PAF 5×10^-9 M, 37° C.
Protocol: Inhibitory action on PAF-induced platelet aggregation Blood was collected from the […] of conscious New Zealand white male rabbits weighing 2 to 3 kg using citric acid as an anticoagulant (one volume pan of 3% citric acid relative to 9 volume parts of the whole blood). […] PRP was diluted with PPP to adjust the number of platelets to about 3×10^5 /μl. […] Platelet aggregation was then examined by means of turbidimetry [Born, Nature, 194, 927(1962)] with dual channel aggegometer (Chrono-Log. Corp., Havertown, Pa.). As the control, physiological saline without test sample was used. The platelet aggregation inhibiting activities of the test sample are expressed as IC50, that is the concentration of the compound at which 50% of the aggregation is inhibited.

[2] = biological target: T1, PAF receptor (rabbit platelet membranes) (Oryctolagus cuniculus, UniProt G1TEI7); test: PAF Receptor Binding Assay; conditions: 0.6 nM [^3 H]C18 -PAF, 60 minutes, room temperature, calculated as IC50/2
T1 construct: Rabbit platelets were prepared by centrifugation and washing; tissue Pel-Freez (Rogers, AR); host or cells: rabbit platelets (washed, from citrated whole blood; lysed membranes)
Protocol: PAF Receptor Binding Assay Citrated whole rabbit blood was obtained from Pel-Freez(Rogers, AR). Rabbit platelets were prepared by centrifugation and washing. The platelets were lysed by freeze-thawing and sonification; Platelet membranes were prepared by centrifugation and washing. Final membrane preparation were stored frozen in 10 mM Tris/5 mM MgCl2 /2 mM EDTA (TME buffer, pH 7.0) with 0.25M sucrose added for membrane stabilization. […] The final volume of the assay was 100 μl. […] The […] and removed. The bound radioactivity was quantitated with a Berthold TLC-Linear Analyzer model LB2842. […] Experiments were repeated at least once. […] Ki values of inhibitory binding constants were calculated according to the methods of the literature[Cheng et al., Biochem.

[3] = test system: PAF-induced [^14 C]-serotonin release, rabbit platelets; test: Inhibitory action on PAF-induced [^14 C]-serotonin release; format: cell-based, rabbit (New Zealand white); conditions: Oryctolagus cuniculus, Platelet, PAF 1×10^-9 M; for inhibition at 0.2 µM: test compound 2 × 10^-7 M
Protocol: Inhibitory action on PAF-induced [^14 C]-serotonin release
Blood was collected from the hearts of conscious New Zealand white male rabbits weighing 2 to 3 kg. The blood was immediately subjected to a centrifuge at 1400 rpm for 10 minutes to obtain platelet rich plasma(PRP).PRP was incubated with a trace mount of [^14 C]-serotonin for 20 minutes at 22° C. Prelabelled platelets were prepared by centrifugation at 3500 rpm for 10 minutes. The test compound was added to 80 μl of [^14 C] serotonin-labeled platelets in plastic test tubes, and the mixture was incubated for 2 minutes. PAF (1×10^-9 M) was then added to the reaction mixture and incubated for additional 2 minutes at which time 10 μl of cold formaldehyde was added to stop the reactions. The tubes were immediately cooled to 4° C. and centrifuged at 12000 rpm for 2 minutes. The supernatants (80 μl) were assayed for percentage of [^14 C] serotonin release by the conventional methods of measuring ^14 C counts.

T1 sequence (G1TEI7 1-342): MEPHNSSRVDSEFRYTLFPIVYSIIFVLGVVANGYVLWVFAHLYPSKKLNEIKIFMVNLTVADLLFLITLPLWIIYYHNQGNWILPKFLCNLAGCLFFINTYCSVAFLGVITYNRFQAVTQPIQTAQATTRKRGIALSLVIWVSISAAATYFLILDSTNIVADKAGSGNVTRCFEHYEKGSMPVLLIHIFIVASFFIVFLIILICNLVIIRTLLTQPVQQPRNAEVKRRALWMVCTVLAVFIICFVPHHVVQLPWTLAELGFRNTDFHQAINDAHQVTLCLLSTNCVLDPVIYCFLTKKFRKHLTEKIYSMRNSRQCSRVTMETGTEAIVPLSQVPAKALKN

Structure (SMILES) | IC50 [1] | Ki [2] | further results
CCCCCCCCCCCCCCCCCCNC(=O)OC[C@H]1C[C@H](COC(=O)N(Cc2cccc[n+]2CC)C(C)=O)C1 [Example 19, trans-2-[[N-Acetyl-N-[[[3-[[(octadecylcarbamoyl)oxy]methyl]-1-cyclobutyl]methoxy]carbonyl]amino]methyl]-1-ethyl-pyridinium iodide] | 56 nM | 4.3 nM | –
CCCCCCCCCCCCCCCCOC[C@H]1C[C@H](COC(=O)N(Cc2cccc[n+]2CC)C(C)=O)S1 (relative stereo) [Example 32, trans-2-[[N-Acetyl-N-[[[4-[(hexadecyloxy)methyl]-2-thietanyl]methoxy]carbonyl]amino]methyl]-1-ethyl-pyridinium chloride] | 52 nM | 20 nM | –
CCCCCCCCCCCCCCCCCCNC(=O)OC[C@@H]1C[C@H](COC(=O)N(Cc2cccc[n+]2CC)C(C)=O)O1 (relative stereo) [Example 3, cis-2-[[N-Acetyl-N-[[[4-[[(octadecylcarbamoyl)oxy]methyl]-2-oxetanyl]methoxy]carbonyl]amino]methyl]-1-ethyl-pyridinium iodide] | – | – | inhibition at 0.2 µM [3]: 97%; inhibition at 0.005 µM ([3]; test compound 5 × 10^-9 M): 58%
CCCCCCCCCCCCCCCCCCNC(=O)OC[C@H]1C[C@H](COC(=O)N(Cc2cccc[n+]2CC)C(C)=O)O1 (relative stereo) [Example 5, trans-2-[[N-Acetyl-N-[[[4-[[(octadecylcarbamoyl)oxy]methyl]-2-oxetanyl]methoxy]carbonyl]amino]methyl]-1-ethyl-pyridinium iodide] | – | – | inhibition at 0.2 µM [3]: 97%
CCCCCCCCCCCCCCCCNC(=O)OC[C@H]1C[C@H](COC(=O)N(Cc2cccc[n+]2CC)C(C)=O)S1 (relative stereo) [Example 29, trans-2-[[N-Acetyl-N-[[[4-[[(hexadecylcarbamoyl)oxy]methyl]-2-thietanyl]methoxy]carbonyl]amino]methyl]-1-ethyl-pyridinium chloride] | 21 nM | 9.8 nM | –
CCCCCCCCCCCCCCCCCCNC(=O)OC[C@H]1C[C@H](COC(=O)N(Cc2cccc[n+]2CC)C(C)=O)S1 (relative stereo) [Example 27, trans-2-[[N-Acetyl-N-[[[4-[[(Octadecylcarbamoyl)oxy]methyl]-2-thietanyl]methoxy]carbonyl]amino]methyl]-1-ethyl-pyridinium chloride] | 57 nM | 4.3 nM | –
CCCCCCCCCCCCCCCCCCNC(=O)OCC1(COC(=O)CCCCC[n+]2ccccc2)COC1 [Example 12, N-[5-[[[3-[[(Octadecylcarbamoyl)oxy]methyl]-3-oxetanyl]methoxy]carbonyl]pentyl]pyridinium bromide] | – | – | inhibition at 0.2 µM [3]: 94%; inhibition at 0.05 µM ([3]; test compound 5 × 10^-8 M): 58%
CCCCCCCCCCCCCCCCOCC1(COC(=O)N(Cc2cccc[n+]2CC)C(C)=O)COC1 [Example 9, 2-[[N-Acetyl-N-[[[3-[(hexadecyloxy)methyl]-3-oxetanyl]methoxy]carbonyl]amino]methyl]-1-ethyl-pyridinium iodide] | 219 nM | 110 nM | –
CCCCCCCCCCCCCCCCNC(=O)OC[C@@H]1C[C@@H](COC(=O)N(Cc2cccc[n+]2CC)C(=O)c2ccccc2OC)S1 (relative stereo) [Example 31, trans-2-[[N-(2-Methoxy)benzoyl-N-[[[4-[[(hexadecylcarbamoyl)oxy]methyl]-2-thietanyl]methoxy]carbonyl]amino]methyl]1-ethyl-pyridinium chloride] | 69 nM | – | –
CCCCCCCCCCCCCCCCCCNC(=O)OC[C@@H]1C[C@H](COC(=O)N(Cc2cccc[n+]2CC)C(C)=O)S1 (relative stereo) [Example 28, cis-2-[[N-Acetyl-N-[[[4-[[(octadecylcarbamoyl)oxy]methyl]-2-thietanyl]methoxy]carbonyl]amino]methyl]-1-ethyl-pyridinium chloride] | 61 nM | 9.8 nM | –
CCCCCCCCCCCCCCCCCCNC(=O)OC[C@@H]1C[C@@H](COC(=O)N(Cc2cccc[n+]2CC)C(C)=O)N1C(C)=O (relative stereo) [Example 43, 2-[[N-Acetyl-N-[[[4-[[(octadecylcarbamoyl)oxy]methyl]-1-acetylazetidine-2-yl]methoxy]carbonyl]amino]methyl]-1-ethyl-pyridinium chloride] | 29 nM | 35 nM | –
CCCCCCCCCCCCCCCCCCNC(=O)OC[C@@H]1C[C@@H](COC(=O)N(Cc2cccc[n+]2CC)C(=O)c2ccccc2OC)S1 (relative stereo) [Example 30] | 84 nM | – | –

More lines, main results first:

IC50 [1] | Ki [2] | Structure (SMILES) | further results
275 nM | – | CCCCCCCCCCCCCCCCCCNC(=O)OC[C@H]1C[C@H](COCCCC[n+]2cccc3ccccc32)S1 (relative stereo) [Example 35, trans-N-[4-[[4-[[(Octadecylcarbamoyl)oxy]methyl]-2-thietanyl]methoxy]butyl]quinolinium bromide] | –
573 nM | 3.8 nM | CCCCCCCCCCCCCCCCCCNC(=O)OCC1(COC(=O)N(Cc2cccc[n+]2CC)C(C)=O)CCCC1 [Example 16, 2-[[N-Acetyl-N-[[[1-[[(octadecylcarbamoyl)oxy]methyl]-1-cyclopentyl]methoxy]carbonyl]amino]methyl]-1-ethyl-pyridinium iodide] | –
93 nM | 95 nM | CCCCCCCCCCCCCCCCNC(=O)OCC1(COC(=O)N(Cc2cccc[n+]2CC)C(C)=O)COC1 [Example 8, 2-[[N-Acetyl-N-[[[3-[[(hexadecylcarbamoyl)oxy]methyl]-3-oxetanyl]methoxy]carbonyl]amino]methyl]-1-ethyl-pyridinium iodide] | –
95 nM | 9.4 nM | CCCCCCCCCCCCCCCCCCNC(=O)OCC1(COC(=O)CCCC[n+]2cccc3ccccc32)CCCC1 [Example 23, N-[4-[[[1-[[(Octadecylcarbamoyl)oxy]methyl]1-cyclopentyl]methoxy]carbonyl]butyl]quinolinium bromide] | –
350 nM | 1.2 nM | CCCCCCCCCCCCCCCCNC(=O)OCC1(COC(=O)N(Cc2cccc[n+]2CC)C(C)=O)CCCC1 [Example 20, 2-[[N-Acetyl-N-[[[1-[[(hexadecylcarbamoyl)oxy]methyl]-1-cyclopentyl]methoxy]carbonyl]amino]methyl]-1-ethyl-pyridinium iodide] | –
658 nM | – | CCCCCCCCCCCCCCCCOCC1(COC(=O)CCCC[n+]2cccc3ccccc32)CSC1 [Example 42, N-[4-[[[3-[(Hexadecyoxy)methyl]-3-thietanyl]methoxy]carbonyl]butyl]quinolinium bromide] | –
350 nM | – | CCCCCCCCCCCCCCCCCCNC(=O)OC[C@H]1C[C@H](COC(=O)CCCC[n+]2cccc3ccccc32)S1 (relative stereo) [Example 34, trans-N-[4-[[[4-[[(Octadecylcarbamoyl)oxy]methyl]-2-thietanyl]methoxy]carbonyl]butyl]quinolinium bromide] | –
178 nM | 278 nM | CCCCCCCCCCCCCCCCCCNC(=O)OCC1(COC(=O)N(Cc2cccc[n+]2CC)C(C)=O)CS(=O)(=O)C1 [Example 38, 2-[[N-Acetyl-N-[[[3-[[(octadecylcarbamoyl)oxy]methyl]thietane 1,1-dioxide-3-yl]methoxy]carbonyl]amino]methyl]-1-ethyl-pyridinium iodide] | –
57 nM | 30 nM | CCCCCCCCCCCCCCCCCCNC(=O)OCC1(COC(=O)CCCCC[n+]2cccc3ccccc32)CSC1 [Example 41, N-[5-[[[3-[[(Octadecylcarbamoyl)oxy]methyl]-3-thietanyl]methoxy]carbonyl]pentyl]quinolinium bromide] | –
1140 nM | – | CCCCCCCCCCCCCCCCCCNC(=O)OCC1(COC(=O)CCCC[n+]2ccsc2)CCCC1 [Example 22, 3-[4-[[[1-[[(Octadecylcarbamoyl)oxy]methyl]-1-cyclopentyl]methoxy]carbonyl]butyl]thiazolium bromide] | –
125 nM | 9.3 nM | CCCCCCCCCCCCCCCCCCNC(=O)OCC1(COC(=O)N(Cc2cccc[n+]2CC)C(C)=O)C[S+]([O-])C1 (stereo not drawn) [Example 37, 2-[[N-Acetyl-N-[[[3-[[(octadecylcarbamoyl)oxy]methyl]thietane 1-oxide-3-yl]methoxy]carbonyl]amino]methyl]-1-ethyl-pyridinium iodide] | –
